Where two headings read alike, the source gives them in different places.
Columns and labels:
[1] = tested on: M. incognita J2 larvae; test: Meloidogyne incognita in vitro larval mobility assay; assay type: in vivo; settings: for Replicate 1 z-score / Replicate 2 z-score: z-score vs untreated DMSO wells; for pest or weed control at 45 µM: Meloidogyne incognita, 96 h
Description: M. incognita (Kofoid & White) Chitwood Race 1 (originally isolated in Maryland) was used for all experiments, and was maintained on pepper (Capsicum annuum L.) cv. PA-136 in a greenhouse as previously described^44. Infective J2 juveniles were collected as described in ref. 45. The microwell dose-response experiments were carried out similarly to previously described protocols^44,46. In brief, 50 μL of deionized water was added to the wells of 96-well polystyrene plates and 0.5 μL of test compound (or DMSO alone) was added to each well. Approximately 35 J2s were then added to each well in 49.5 μL of deionized water. The chemicals were tested at 45 μM, and the final concentration of DMSO in each well was 0.5% (v/v). DMSO alone was added to 3 separate wells. The plates were covered with plastic adhesive strips, and the lids of the plates were sealed with parafilm. The plates were incubated at 25° C. without shaking for 4 days. The percent of worms that were immobile (% immobile) was quantified by counting the number of immobile worms after 4 days of incubation, dividing the number of immobile worms by the total number of worms in the well, and then multiplying by 100. Two replicates were performed for each treatment. The z-score for each treatment was calculated using the mean and standard deviation of the untreated DMSO control wells. The average % immobile value was calculated across the two replicates. A test compound was considered most promising if the z-score was greater than 1.645 in both replicates.

[2] = tested on: M. hapla eggs; test: Meloidogyne hapla in vitro egg hatch assay; assay type: in vivo; settings: 45 μM; for Number of Hatched Eggs: 8 days at room temperature, about 90 eggs per well, tested once; for Number of Hatched Eggs z-score: 8 days, z-score vs 8 untreated DMSO wells
Description: The M. hapla were originally obtained from a soil sample of muck soil from Ste-Clotilde, Quebec, Canada. Using tweezers, egg masses were carefully removed from root material from infested carrot roots. Eggs were liberated from the egg masses using a mild sodium hypochlorite bleaching protocol, whereby egg masses were bleached with a 10% commercial bleach (sodium hypochlorite) solution for 4 minutes with vigorous shaking, and then washed 5 times with deionized water. 50 μL of deionized water was added to each well of two 96-well polystyrene culture plates, and 0.5 μL of chemical (or DMSO alone) was added to each well. Approximately 90 eggs were added to each well in 49.5 ul of deionized water. The plates were sealed with parafilm and incubated for 8 days at room temperature without shaking in a Tupperware box filled with wet paper towels. After the 8-day incubation, the number of hatched eggs was counted for each treatment and for the untreated controls. Each chemical treatment was tested only once. 8 separate untreated DMSO controls were included in the experiment. The z-score for each treatment was calculated using the mean and standard deviation of the untreated DMSO control wells.

[3] = 45 μM, 4 days, average of the two replicates, read-out: Average % Immobile
[4] = 45 μM, 4 days, replicate 1, read-out: Replicate 1 % Immobile
[5] = 45 μM, 4 days, replicate 2, read-out: Replicate 2 % Immobile

With `Fc1ccccc1-c1cn2ccsc2n1` [I-89] the “Replicate 1 z-score” value ([1]; 45 μM, 4 days, replicate 1) was “[10.62]”, the “Replicate 2 z-score” value ([1]; 45 μM, 4 days, replicate 2) was “[12.27]” and the pest or weed control at 45 µM [1, 3] was ≥ 75%. For the same molecule, the pest or weed control at 45 µM [1, 4] was 74.7%, the pest or weed control at 45 µM [1, 5] was 77.6% and the “Number of Hatched Eggs” value [2] was 3. The “Number of Hatched Eggs z-score” value [2] was “[3.64]”.

`O=C(O)c1cn2cc(-c3ccccc3)nc2s1` [I-94] was tested, and the “Number of Hatched Eggs” value [2] was 4 and the “Number of Hatched Eggs z-score” value [2] was “[3.31]”.

In the case of `CNC(=O)O/N=C(\SC)C(=O)N(C)C` [Oxamyl, oxamyl, reference compound], the “Replicate 1 z-score” value ([1]; 45 μM, 4 days, replicate 1) was “[9.35]”, the “Replicate 2 z-score” value ([1]; 45 μM, 4 days, replicate 2) was “[13.88]” and the pest or weed control at 45 µM ([1]; read-out: Average % Immobile) was 66.9%. The pest or weed control at 45 µM ([1]; read-out: Replicate 1 % Immobile) was 67.2%, the pest or weed control at 45 µM ([1]; read-out: Replicate 2 % Immobile) was 66.7% and the “Number of Hatched Eggs” value [2] was 9. The “Number of Hatched Eggs z-score” value [2] was “[1.65]”.

`Nc1c(-c2ccccc2)nc2sccn12` [I-128] was tested, and the “Replicate 1 z-score” value ([1]; 45 μM, 4 days, replicate 1) was “[11.92]”, the “Replicate 2 z-score” value ([1]; 45 μM, 4 days, replicate 2) was “[13.69]” and the pest or weed control at 45 µM [1, 3] was ≥ 75%. For the same molecule, the pest or weed control at 45 µM [1, 4] was 81% and the pest or weed control at 45 µM [1, 5] was 85.5%.

In the case of `COCc1nn2cc(-c3cccc(OC)c3)nc2s1` [I-108], the “Number of Hatched Eggs” value [2] was 4 and the “Number of Hatched Eggs z-score” value [2] was “[3.31]”.

`O=Cc1c(-c2ccccc2)nc2sccn12` [I-122] was tested, and the “Replicate 1 z-score” value ([1]; 45 μM, 4 days, replicate 1) was “[14.96]”, the “Replicate 2 z-score” value ([1]; 45 μM, 4 days, replicate 2) was “[12.31]” and the pest or weed control at 45 µM [1, 3] was ≥ 75%. For the same molecule, the pest or weed control at 45 µM [1, 4] was 95.9%, the pest or weed control at 45 µM [1, 5] was 77.8% and the “Number of Hatched Eggs” value [2] was 1. For the same molecule, the “Number of Hatched Eggs z-score” value [2] was “[4.30]”.

`c1ccc2cc(-c3cn4ccsc4n3)ccc2c1` [I-101] was tested, and the “Number of Hatched Eggs” value [2] was 2 and the “Number of Hatched Eggs z-score” value [2] was “[3.97]”.

For `COCc1nn2cc(-c3ccc(C)c(C)c3)nc2s1` [I-109], the “Number of Hatched Eggs” value [2] was 4 and the “Number of Hatched Eggs z-score” value [2] was “[3.31]”.

For `O=Cc1c(-c2ccc(Cl)cc2)nc2sccn12` [I-93], the “Replicate 1 z-score” value ([1]; 45 μM, 4 days, replicate 1) was “[15.80]”, the “Replicate 2 z-score” value ([1]; 45 μM, 4 days, replicate 2) was “[12.15]” and the pest or weed control at 45 µM [1, 3] was ≥ 75%. It also gave a pest or weed control at 45 µM [1, 4] of 100% and a pest or weed control at 45 µM [1, 5] of 76.9%.

In the case of `Nc1c(-c2ccc(Br)cc2)nc2sccn12` [I-118], the “Number of Hatched Eggs” value [2] was 2 and the “Number of Hatched Eggs z-score” value [2] was “[3.97]”.

In the case of `Cc1nn2cc(-c3ccc(Cl)cc3)nc2s1` [I-158], the “Replicate 1 z-score” value ([1]; 45 μM, 4 days, replicate 1) was “[3.12]”, the “Replicate 2 z-score” value ([1]; 45 μM, 4 days, replicate 2) was “[8.51]” and the pest or weed control at 45 µM [1, 3] was 47.4%. It also gave a pest or weed control at 45 µM [1, 4] of 37.9% and a pest or weed control at 45 µM [1, 5] of 56.8%.

With `Clc1ccc(-c2cn3ccsc3n2)s1` [I-84] the “Replicate 1 z-score” value ([1]; 45 μM, 4 days, replicate 1) was “[13.56]”, the “Replicate 2 z-score” value ([1]; 45 μM, 4 days, replicate 2) was “[16.33]” and the pest or weed control at 45 µM [1, 3] was ≥ 75%. The pest or weed control at 45 µM [1, 4] was 89.1%, the pest or weed control at 45 µM [1, 5] was 100% and the “Number of Hatched Eggs” value [2] was 0. The “Number of Hatched Eggs” value ([2]; listed as 1-84) was “completely inhibited egg hatching” and the “Number of Hatched Eggs z-score” value [2] was “[4.63]”.

For `COc1ccc(-c2cn3ccsc3n2)cc1` [I-142], the “Replicate 1 z-score” value ([1]; 45 μM, 4 days, replicate 1) was “[2.76]”, the “Replicate 2 z-score” value ([1]; 45 μM, 4 days, replicate 2) was “[1.68]” and the pest or weed control at 45 µM [1, 3] was 27.6%. The pest or weed control at 45 µM [1, 4] was 36.2% and the pest or weed control at 45 µM [1, 5] was 19.1%.

With `CCc1nn2cc(-c3ccc(C)cc3C)nc2s1` [I-129] the “Replicate 1 z-score” value ([1]; 45 μM, 4 days, replicate 1) was “[2.18]”, the “Replicate 2 z-score” value ([1]; 45 μM, 4 days, replicate 2) was “[1.78]” and the pest or weed control at 45 µM [1, 3] was 26.5%. The pest or weed control at 45 µM [1, 4] was 33.3% and the pest or weed control at 45 µM [1, 5] was 19.6%.

With `Cc1cn2cc(-c3ccc(OC(F)F)cc3)nc2s1` [I-54] the “Replicate 1 z-score” value ([1]; 45 μM, 4 days, replicate 1) was “[1.73]”, the “Replicate 2 z-score” value ([1]; 45 μM, 4 days, replicate 2) was “[2.15]” and the pest or weed control at 45 µM [1, 3] was 26.4%. The pest or weed control at 45 µM [1, 4] was 31.1% and the pest or weed control at 45 µM [1, 5] was 21.7%.

In the case of `Cc1csc2nc(-c3ccc(OC(F)(F)F)cc3)cn12` [I-62], the “Number of Hatched Eggs” value [2] was 3 and the “Number of Hatched Eggs z-score” value [2] was “[3.64]”.

For `COCc1nn2cc(-c3ccc(F)cc3)nc2s1` [I-141], the “Replicate 1 z-score” value ([1]; 45 μM, 4 days, replicate 1) was “[1.89]”, the “Replicate 2 z-score” value ([1]; 45 μM, 4 days, replicate 2) was “[4.06]” and the pest or weed control at 45 µM [1, 3] was 32.1%. The pest or weed control at 45 µM [1, 4] was 31.9% and the pest or weed control at 45 µM [1, 5] was 32.2%.

With `Cc1cn2cc(-c3cccs3)nc2s1` [I-78] the “Number of Hatched Eggs” value [2] was 3 and the “Number of Hatched Eggs z-score” value [2] was “[3.64]”.

For `Fc1ccc(-c2cn3nc(Br)sc3n2)cc1` [I-113], the “Replicate 1 z-score” value ([1]; 45 μM, 4 days, replicate 1) was “[15.80]”, the “Replicate 2 z-score” value ([1]; 45 μM, 4 days, replicate 2) was “[15.32]” and the pest or weed control at 45 µM [1, 4] was 100%. The pest or weed control at 45 µM [1, 5] was 94.4%.

In the case of `FC(F)(F)c1ccc(-c2cn3ccsc3n2)cc1` [I-68], the “Number of Hatched Eggs” value [2] was 4 and the “Number of Hatched Eggs z-score” value [2] was “[3.31]”.

With `Cc1ccc(-c2nc3sccn3c2C=O)cc1` [I-152] the “Replicate 1 z-score” value ([1]; 45 μM, 4 days, replicate 1) was “[15.80]”, the “Replicate 2 z-score” value ([1]; 45 μM, 4 days, replicate 2) was “[14.75]” and the pest or weed control at 45 µM [1, 4] was 100%. For the same molecule, the pest or weed control at 45 µM [1, 5] was 91.3%.

With `Cc1csc(-c2cn3cc(C)sc3n2)c1` [I-161] the “Number of Hatched Eggs” value [2] was 0, the “Number of Hatched Eggs” value ([2]; listed as 1-161) was “completely inhibited egg hatching” and the “Number of Hatched Eggs z-score” value [2] was “[4.63]”.

For `O=Cc1c(-c2ccc(F)cc2)nc2sccn12` [I-157], the “Replicate 1 z-score” value ([1]; 45 μM, 4 days, replicate 1) was “[15.40]”, the “Replicate 2 z-score” value ([1]; 45 μM, 4 days, replicate 2) was “[15.24]” and the pest or weed control at 45 µM [1, 4] was 98%. For the same molecule, the pest or weed control at 45 µM [1, 5] was 94%.

`COc1c(-c2cn3ccsc3n2)ccc2ccccc12` [I-81] was tested, and the “Number of Hatched Eggs” value [2] was 3 and the “Number of Hatched Eggs z-score” value [2] was “[3.64]”.

For `COc1ccc(-c2nc3scc(C)n3c2C=O)cc1` [I-135], the “Number of Hatched Eggs” value [2] was 4 and the “Number of Hatched Eggs z-score” value [2] was “[3.31]”.

With `CCOc1ccc(-c2cn3ccsc3n2)cc1` [I-153] the “Number of Hatched Eggs” value [2] was 2 and the “Number of Hatched Eggs z-score” value [2] was “[3.97]”.

`CCOC(=O)c1ccc(-c2cn3ccsc3n2)cc1` [I-72] was tested, and the “Number of Hatched Eggs” value [2] was 4 and the “Number of Hatched Eggs z-score” value [2] was “[3.31]”.

`Cc1sc2nc(-c3ccc(Cl)s3)cn2c1C` [I-86] was tested, and the “Number of Hatched Eggs” value [2] was 4 and the “Number of Hatched Eggs z-score” value [2] was “[3.31]”.

`Cc1csc2nc(-c3ccc(Cl)s3)cn12` [I-85] was tested, and the “Number of Hatched Eggs” value [2] was 4 and the “Number of Hatched Eggs z-score” value [2] was “[3.31]”.

For `Cc1cn2cc(-c3ccc(N)cc3)nc2s1` [I-132], the “Number of Hatched Eggs” value [2] was 3 and the “Number of Hatched Eggs z-score” value [2] was “[3.64]”.

With `Brc1nn2cc(-c3ccccc3)nc2s1` [I-159] the “Replicate 1 z-score” value ([1]; 45 μM, 4 days, replicate 1) was “[15.34]”, the “Replicate 2 z-score” value ([1]; 45 μM, 4 days, replicate 2) was “[16.33]” and the pest or weed control at 45 µM [1, 4] was 97.8%. It also gave a pest or weed control at 45 µM [1, 5] of 100%.

With `Cc1cn2cc(-c3ccc(OC(F)(F)F)cc3)nc2s1` [I-53] the “Replicate 1 z-score” value ([1]; 45 μM, 4 days, replicate 1) was “[3.33]”, the “Replicate 2 z-score” value ([1]; 45 μM, 4 days, replicate 2) was “[6.79]” and the pest or weed control at 45 µM [1, 3] was 43.1%. The pest or weed control at 45 µM [1, 4] was 39% and the pest or weed control at 45 µM [1, 5] was 47.3%.

In the case of `Cc1csc2nc(-c3ccc(OC(F)F)cc3)cn12` [I-64], the “Number of Hatched Eggs” value [2] was 4 and the “Number of Hatched Eggs z-score” value [2] was “[3.31]”.
